Measured values: PubChem BioAssay AID248 (DTP/NCI, 2004)
Values joined by “and” are separate entries in the source; they are usually repeats but may differ in a detail not shown here. Equal entries are not always repeated. Toxic doses and inconclusive results are not listed. Rule as the data show it: active = T/C of 150% or more; inactive = T/C below 125%.

Test system: L1210 leukemia ip in BDF1 mice, survival T/C
Experiment: NCI In Vivo Anticancer Drug Screen. Data for tumor model L1210 Leukemia (intraperitoneal) in B6D2F1 (BDF1) mice
Conditions: endpoint: mean survival time, higher = longer survival
Procedure, shortened: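 Tumor cells were implanted, animals were treated, and survival was followed. The result divides the treated measurement by the vehicle-control measurement.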

[1] = dose: 50.0 mg/kg/injection, schedule: Q01DX009 (ip), vehicle: saline
[2] = dose: 100.0 mg/kg/injection, schedule: Q01DX009 (ip), vehicle: saline
[3] = dose: 100.0 mg/kg/injection, schedule: Q04DX003 (ip), vehicle: saline
[4] = dose: 200.0 mg/kg/injection, schedule: Q04DX003 (ip), vehicle: saline
[5] = dose: 100.0 mg/kg/injection, schedule: Q01DX009 (ip), vehicle: Klucel (hydroxypropylcellulose) (HPC)
[6] = dose: 200.0 mg/kg/injection, schedule: Q01DX009 (ip), vehicle: Klucel (hydroxypropylcellulose) (HPC)
[7] = dose: 400.0 mg/kg/injection, schedule: Q01DX009 (ip), vehicle: Klucel (hydroxypropylcellulose) (HPC)

Measured: T/C

O=C1C=CC(=O)O1 (tested in a mixture with another compound)
inactive: dose: 0.22 mg/kg/injection, schedule: Q01DX009 (ip), vehicle: acetone 96 % of control | dose: 0.44 mg/kg/injection, schedule: Q01DX009 (ip), vehicle: acetone 105 % of control | dose: 0.78 mg/kg/injection, schedule: Q04DX003 (ip), vehicle: other 93 % of control | dose: 0.88 mg/kg/injection, schedule: Q01DX009 (ip), vehicle: acetone 92 % of control | dose: 1.56 mg/kg/injection, schedule: Q04DX003 (ip), vehicle: other 96 % of control | dose: 3.12 mg/kg/injection, schedule: Q04DX003 (ip), vehicle: other 104 % of control | dose: 4.6 mg/kg/injection, schedule: Q04DX003 (ip), vehicle: Klucel (hydroxypropylcellulose) (HPC) 96 % of control | dose: 7.1 mg/kg/injection, schedule: Q04DX003 (ip), vehicle: Klucel (hydroxypropylcellulose) (HPC) 96 % of control | dose: 15.0 mg/kg/injection, schedule: Q01DX001 (ip), vehicle: carboxymethylcellulose (CMC) 112 % of control | dose: 22.0 mg/kg/injection, schedule: Q01DX015 (ip), vehicle: carboxymethylcellulose (CMC) 101 % of control and 119 % of control | dose: 30.0 mg/kg/injection, schedule: Q01DX001 (ip), vehicle: carboxymethylcellulose (CMC) 116 % of control | dose: 31.25 mg/kg/injection, schedule: Q#A X Z (ip), vehicle: carboxymethylcellulose (CMC) 96 % of control and 93 % of control and 108 % of control | dose: 33.0 mg/kg/injection, schedule: Q01DX015 (ip), vehicle: carboxymethylcellulose (CMC) 101 % of control and 103 % of control | [1] 107 % of control [middle of 5 runs] | dose: 50.0 mg/kg/injection, schedule: Q01DX015 (ip), vehicle: carboxymethylcellulose (CMC) 108 % of control | dose: 62.5 mg/kg/injection, schedule: Q#A X Z (ip), vehicle: carboxymethylcellulose (CMC) 96 % of control and 95 % of control and 106 % of control | dose: 75.0 mg/kg/injection, schedule: Q01DX001 (ip), vehicle: carboxymethylcellulose (CMC) 119 % of control | dose: 75.0 mg/kg/injection, schedule: Q01DX001 (ip), vehicle: water 104 % of control | dose: 75.0 mg/kg/injection, schedule: Q01DX015 (ip), vehicle: carboxymethylcellulose (CMC) 98 % of control | dose: 100.0 mg/kg/injection, schedule: Q01DX001 (ip), vehicle: saline 115 % of control | [2] 112 % of control [middle of 7 runs] | [3] 107 % of control and 112 % of control and 109 % of control | dose: 125.0 mg/kg/injection, schedule: Q#A X Z (ip), vehicle: carboxymethylcellulose (CMC) 86 % of control and 102 % of control and 106 % of control | dose: 125.0 mg/kg/injection, schedule: Q#A X Z (oral), vehicle: carboxymethylcellulose (CMC) 106 % of control and 100 % of control | dose: 150.0 mg/kg/injection, schedule: Q01DX001 (ip), vehicle: water 106 % of control | dose: 177.0 mg/kg/injection, schedule: Q01DX001 (ip), vehicle: saline 98 % of control | dose: 200.0 mg/kg/injection, schedule: Q01DX001 (ip), vehicle: saline 107 % of control | [4] 106 % of control [middle of 4 runs] | dose: 250.0 mg/kg/injection, schedule: Q#A X Z (ip), vehicle: carboxymethylcellulose (CMC) 86 % of control and 108 % of control and 90 % of control | dose: 250.0 mg/kg/injection, schedule: Q#A X Z (oral), vehicle: carboxymethylcellulose (CMC) 106 % of control and 100 % of control and 103 % of control | dose: 270.0 mg/kg/injection, schedule: Q01DX001 (ip), vehicle: saline 105 % of control | dose: 300.0 mg/kg/injection, schedule: Q01DX001 (ip), vehicle: water 97 % of control | dose: 400.0 mg/kg/injection, schedule: Q01DX001 (ip), vehicle: saline 112 % of control and 100 % of control | dose: 400.0 mg/kg/injection, schedule: Q01DX009 (ip), vehicle: saline 113 % of control | dose: 500.0 mg/kg/injection, schedule: Q#A X Z (oral), vehicle: carboxymethylcellulose (CMC) 100 % of control and 102 % of control | dose: 600.0 mg/kg/injection, schedule: Q01DX001 (ip), vehicle: saline 94 % of control | dose: 1000.0 mg/kg/injection, schedule: Q#A X Z (oral), vehicle: carboxymethylcellulose (CMC) 100 % of control and 106 % of control and 102 % of control

CN(C)/C=N\c1ncnc2c1ncn2C1OC(CO)C2OC(C)(C)OC21 (stereo not given)
inactive: dose: 100.0 mg/kg/injection, schedule: Q01DX005 (ip), vehicle: saline 104 % of control | dose: 200.0 mg/kg/injection, schedule: Q01DX005 (ip), vehicle: saline 103 % of control

Cc1nc(N)[nH]c(=O)c1N (tested in a mixture with another compound)
inactive: dose: 100.0 mg/kg/injection, schedule: Q01DX001 (ip), vehicle: saline with Tween-80 103 % of control | dose: 200.0 mg/kg/injection, schedule: Q01DX001 (ip), vehicle: saline with Tween-80 107 % of control | dose: 400.0 mg/kg/injection, schedule: Q01DX001 (ip), vehicle: saline with Tween-80 97 % of control

Cc1cc(Cl)ccc1NC(=O)C(c1ccccc1)c1ccccc1
inactive: [5] 89 % of control | dose: 100.0 mg/kg/injection, schedule: Q04DX003 (ip), vehicle: Klucel (hydroxypropylcellulose) (HPC) 101 % of control | [6] 92 % of control | dose: 200.0 mg/kg/injection, schedule: Q04DX003 (ip), vehicle: Klucel (hydroxypropylcellulose) (HPC) 95 % of control | [7] 93 % of control | dose: 400.0 mg/kg/injection, schedule: Q04DX003 (ip), vehicle: Klucel (hydroxypropylcellulose) (HPC) 88 % of control

CCOc1ccc(N=Cc2ccccc2OC(=O)c2ccccc2)cc1
inactive: dose: 100.0 mg/kg/injection, schedule: Q04DX002 (ip), vehicle: Klucel (hydroxypropylcellulose) (HPC) 105 % of control | dose: 200.0 mg/kg/injection, schedule: Q04DX002 (ip), vehicle: Klucel (hydroxypropylcellulose) (HPC) 101 % of control | dose: 400.0 mg/kg/injection, schedule: Q04DX002 (ip), vehicle: Klucel (hydroxypropylcellulose) (HPC) 97 % of control

CCCCCCCCCCCCCCCCCC(=O)OCC1(COC(=O)CCCCCCCCCCCCCCCCC)COC(CCCCCCCCCCCCCCCCC)=N1
inactive: dose: 100.0 mg/kg/injection, schedule: Q01DX001 (ip), vehicle: Klucel (hydroxypropylcellulose) (HPC) 92 % of control | dose: 200.0 mg/kg/injection, schedule: Q01DX001 (ip), vehicle: Klucel (hydroxypropylcellulose) (HPC) 95 % of control | dose: 400.0 mg/kg/injection, schedule: Q01DX001 (ip), vehicle: Klucel (hydroxypropylcellulose) (HPC) 109 % of control

CC(=O)NC(CC(C)C)C(=O)O (stereo not given)
inactive: dose: 25.0 mg/kg/injection, schedule: Q04DX002 (ip), vehicle: saline 96 % of control | dose: 50.0 mg/kg/injection, schedule: Q04DX002 (ip), vehicle: saline 101 % of control | dose: 100.0 mg/kg/injection, schedule: Q04DX002 (ip), vehicle: saline 101 % of control | dose: 200.0 mg/kg/injection, schedule: Q04DX002 (ip), vehicle: saline 90 % of control | dose: 400.0 mg/kg/injection, schedule: Q04DX002 (ip), vehicle: saline 108 % of control

ClP1(N2CCCCC2)=NP(Cl)(N2CCCCC2)=NP(Cl)(N2CCCCC2)=NP(Cl)(N2CCCCC2)=N1 (stereo not given)
inactive: [3] 105 % of control | [4] 94 % of control | dose: 400.0 mg/kg/injection, schedule: Q04DX003 (ip), vehicle: saline 94 % of control

CCCCCCCCCCCCCCCCOCCCCCCCCCCCCCCCC
inactive: [5] 96 % of control | dose: 100.0 mg/kg/injection, schedule: Q04DX003 (ip), vehicle: other 103 % of control | [6] 100 % of control | dose: 200.0 mg/kg/injection, schedule: Q04DX003 (ip), vehicle: other 88 % of control | [7] 91 % of control | dose: 400.0 mg/kg/injection, schedule: Q04DX003 (ip), vehicle: other 95 % of control

Nc1nc2ncc(CNc3ncc(C(=O)NC(CCC(=O)O)C(=O)O)s3)nc2c(=O)[nH]1 (stereo not given)
inactive: dose: 50.0 mg/kg/injection, schedule: Q01DX001 (ip), vehicle: other 105 % of control | dose: 100.0 mg/kg/injection, schedule: Q01DX001 (ip), vehicle: other 106 % of control

COC(=O)c1cn[nH]c1N=Nc1ccc(N(CCCl)CCCl)cc1
inactive: dose: 75.0 mg/kg/injection, schedule: Q01DX001 (ip), vehicle: other 109 % of control | dose: 150.0 mg/kg/injection, schedule: Q01DX001 (ip), vehicle: other 124 % of control | dose: 300.0 mg/kg/injection, schedule: Q01DX001 (ip), vehicle: other 119 % of control

COC(=O)C12C(=CCP1(C)=O)C(c1ccccc1)=NN2c1ccccc1 (stereo not given)
inactive: dose: 12.5 mg/kg/injection, schedule: Q04DX002 (ip), vehicle: saline with Tween-80 92 % of control | dose: 25.0 mg/kg/injection, schedule: Q04DX002 (ip), vehicle: saline with Tween-80 95 % of control

COC(=O)C(C)(N)Cc1ccc(O)cc1 (stereo not given)
inactive: [1] 102 % of control | [2] 97 % of control | [3] 96 % of control | dose: 200.0 mg/kg/injection, schedule: Q01DX009 (ip), vehicle: saline 105 % of control | [4] 93 % of control
